# Test results from PubChem BioAssay AID1845212 (Molecular Pharmacology Branch, DTP, NCI, 2023).
# Tested on: NCI-H719 tumor spheroids, viability
# Test: Anticancer human tumor NCI-H719 cell line growth inhibition;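 note: spheroids exposed to compounds for seven days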;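 for viability, T/C: percent viability relative to DMSO vehicle control as 100%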
# Conditions: spheroids with HUVEC and MSC; for IC50: curve of first compound; for viability, T/C: stronger effect = lower value
# Method in brief: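 Complex tumor spheroids combined malignant cells with endothelial cells and mesenchymal stem cells. DNA-damaging drugs and DNA repair inhibitors were tested alone and in combination, at half-log dilutions down from clinical Cmax (top 10 microM if Cmax unknown), 0.25% DMSO final.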
# [1] = second compound 0.003 µM, first compound 0.00949 µM
# [2] = second compound 0.003 µM, first compound 0.03 µM
# [3] = second compound 0.003 µM, first compound 0.0949 µM
# [4] = second compound 0.003 µM, first compound 0.3 µM
# [5] = second compound 0.003 µM, first compound 0.949 µM
# [6] = second compound 0.003 µM, first compound 3 µM
structure (smiles),measurement,setting,value
Cc1sc2c(c1C)C(c1ccc(Cl)cc1)=NC(CC(=O)Nc1ccc(O)cc1)c1nnc(C)n1-2 (stereo not given) + COc1cc2c(cc1O)CCNC21CSC2c3c(OC(C)=O)c(C)c4c(c3C(COC1=O)N1C(O)C3Cc5cc(C)c(OC)c(O)c5C(C21)N3C)OCO4,IC50,second compound 30 pM,139 nM
same,IC50,second compound 94.9 pM,< 9.49 nM
same,IC50,second compound 0.0003 µM,< 9.49 nM
same,IC50,second compound 0.000949 µM,< 9.49 nM
same,IC50,second compound 0.003 µM,< 9.49 nM
same,"viability, T/C","second compound 30 pM, first compound 0.00949 µM",77.2%
same,"viability, T/C","second compound 30 pM, first compound 0.03 µM",90.2%
same,"viability, T/C","second compound 30 pM, first compound 0.0949 µM",69.2%
same,"viability, T/C","second compound 30 pM, first compound 0.3 µM",11.1%
same,"viability, T/C","second compound 30 pM, first compound 0.949 µM",3.27%
same,"viability, T/C","second compound 30 pM, first compound 3 µM",2.11%
same,"viability, T/C","second compound 94.9 pM, first compound 0.00949 µM",34.7%
same,"viability, T/C","second compound 94.9 pM, first compound 0.03 µM",33.6%
same,"viability, T/C","second compound 94.9 pM, first compound 0.0949 µM",35%
same,"viability, T/C","second compound 94.9 pM, first compound 0.3 µM",7.23%
same,"viability, T/C","second compound 94.9 pM, first compound 0.949 µM",3.48%
same,"viability, T/C","second compound 94.9 pM, first compound 3 µM",1.41%
same,"viability, T/C","second compound 0.0003 µM, first compound 0.00949 µM",8.51%
same,"viability, T/C","second compound 0.0003 µM, first compound 0.03 µM",6.28%
same,"viability, T/C","second compound 0.0003 µM, first compound 0.0949 µM",6.64%
same,"viability, T/C","second compound 0.0003 µM, first compound 0.3 µM",4.03%
same,"viability, T/C","second compound 0.0003 µM, first compound 0.949 µM",1.94%
same,"viability, T/C","second compound 0.0003 µM, first compound 3 µM",2.8%
same,"viability, T/C","second compound 0.000949 µM, first compound 0.00949 µM",6.63%
same,"viability, T/C","second compound 0.000949 µM, first compound 0.03 µM",6.95%
same,"viability, T/C","second compound 0.000949 µM, first compound 0.0949 µM",4.47%
same,"viability, T/C","second compound 0.000949 µM, first compound 0.3 µM",1.87%
same,"viability, T/C","second compound 0.000949 µM, first compound 0.949 µM",1.26%
same,"viability, T/C","second compound 0.000949 µM, first compound 3 µM",0.53%
same,"viability, T/C",[1],0.27%
same,"viability, T/C",[2],0.37%
same,"viability, T/C",[3],0.18%
same,"viability, T/C",[4],0.13%
same,"viability, T/C",[5],0.18%
same,"viability, T/C",[6],0.31%
CNCc1ccc(-c2cc(-c3nc(-c4ccc(S(=O)(=O)C(C)C)cc4)cnc3N)on2)cc1 + CC[C@@]1(O)C(=O)OCc2c1cc1n(c2=O)Cc2cc3c(CN(C)C)c(O)ccc3nc2-1,IC50,second compound 0.003 µM,11.2 nM
same,IC50,second compound 0.00949 µM,< 9.49 nM
same,IC50,second compound 0.03 µM,< 9.49 nM
same,IC50,second compound 0.0949 µM,< 9.49 nM
same,IC50,second compound 0.3 µM,< 9.49 nM
same,"viability, T/C",[1],51%
same,"viability, T/C",[2],42.9%
same,"viability, T/C",[3],15.8%
same,"viability, T/C",[4],7.57%
same,"viability, T/C",[5],6.32%
same,"viability, T/C",[6],0.12%
same,"viability, T/C","second compound 0.00949 µM, first compound 0.00949 µM",12.4%
same,"viability, T/C","second compound 0.00949 µM, first compound 0.03 µM",6.06%
same,"viability, T/C","second compound 0.00949 µM, first compound 0.0949 µM",6.36%
same,"viability, T/C","second compound 0.00949 µM, first compound 0.3 µM",7.36%
same,"viability, T/C","second compound 0.00949 µM, first compound 0.949 µM",7.1%
same,"viability, T/C","second compound 0.00949 µM, first compound 3 µM",0.13%
same,"viability, T/C","second compound 0.03 µM, first compound 0.00949 µM",5.87%
same,"viability, T/C","second compound 0.03 µM, first compound 0.03 µM",9.07%
same,"viability, T/C","second compound 0.03 µM, first compound 0.0949 µM",6.09%
same,"viability, T/C","second compound 0.03 µM, first compound 0.3 µM",8.62%
same,"viability, T/C","second compound 0.03 µM, first compound 0.949 µM",7.57%
same,"viability, T/C","second compound 0.03 µM, first compound 3 µM",0.1%
same,"viability, T/C","second compound 0.0949 µM, first compound 0.00949 µM",5.51%
same,"viability, T/C","second compound 0.0949 µM, first compound 0.03 µM",6.14%
same,"viability, T/C","second compound 0.0949 µM, first compound 0.0949 µM",7.1%
same,"viability, T/C","second compound 0.0949 µM, first compound 0.3 µM",8.34%
same,"viability, T/C","second compound 0.0949 µM, first compound 0.949 µM",8.45%
same,"viability, T/C","second compound 0.0949 µM, first compound 3 µM",0.11%
same,"viability, T/C","second compound 0.3 µM, first compound 0.00949 µM",6.1%
same,"viability, T/C","second compound 0.3 µM, first compound 0.03 µM",6.24%
same,"viability, T/C","second compound 0.3 µM, first compound 0.0949 µM",7.61%
same,"viability, T/C","second compound 0.3 µM, first compound 0.3 µM",8.16%
same,"viability, T/C","second compound 0.3 µM, first compound 0.949 µM",6.89%
same,"viability, T/C","second compound 0.3 µM, first compound 3 µM",0.15%
COc1cc(C)[nH]c(=O)c1CN1CCc2c(Cl)cc(C(OC)C3COC3)c(Cl)c2C1=O (stereo not given) + CC[C@@]1(O)C(=O)OCc2c1cc1n(c2=O)Cc2cc3c(CN(C)C)c(O)ccc3nc2-1,IC50,second compound 0.003 µM,> 10000 nM
same,IC50,second compound 0.00949 µM,< 31.6 nM
same,IC50,second compound 0.03 µM,< 31.6 nM
same,IC50,second compound 0.0949 µM,< 31.6 nM
same,IC50,second compound 0.3 µM,< 31.6 nM
same,"viability, T/C","second compound 0.003 µM, first compound 0.0316 µM",69.7%
same,"viability, T/C","second compound 0.003 µM, first compound 0.1 µM",57.6%
same,"viability, T/C","second compound 0.003 µM, first compound 0.316 µM",74.2%
same,"viability, T/C","second compound 0.003 µM, first compound 1 µM",65%
same,"viability, T/C","second compound 0.003 µM, first compound 3.16 µM",77%
same,"viability, T/C","second compound 0.003 µM, first compound 10 µM",69.1%
same,"viability, T/C","second compound 0.00949 µM, first compound 0.0316 µM",12.2%
same,"viability, T/C","second compound 0.00949 µM, first compound 0.1 µM",9.34%
same,"viability, T/C","second compound 0.00949 µM, first compound 0.316 µM",9.67%
same,"viability, T/C","second compound 0.00949 µM, first compound 1 µM",10.4%
same,"viability, T/C","second compound 0.00949 µM, first compound 3.16 µM",7.95%
same,"viability, T/C","second compound 0.00949 µM, first compound 10 µM",7.67%
same,"viability, T/C","second compound 0.03 µM, first compound 0.0316 µM",6.93%
same,"viability, T/C","second compound 0.03 µM, first compound 0.1 µM",8.47%
same,"viability, T/C","second compound 0.03 µM, first compound 0.316 µM",6.68%
same,"viability, T/C","second compound 0.03 µM, first compound 1 µM",8.32%
same,"viability, T/C","second compound 0.03 µM, first compound 3.16 µM",8.79%
same,"viability, T/C","second compound 0.03 µM, first compound 10 µM",7.28%
same,"viability, T/C","second compound 0.0949 µM, first compound 0.0316 µM",8.78%
same,"viability, T/C","second compound 0.0949 µM, first compound 0.1 µM",7.8%
same,"viability, T/C","second compound 0.0949 µM, first compound 0.316 µM",7.84%
same,"viability, T/C","second compound 0.0949 µM, first compound 1 µM",8.96%
same,"viability, T/C","second compound 0.0949 µM, first compound 3.16 µM",8.75%
same,"viability, T/C","second compound 0.0949 µM, first compound 10 µM",8.8%
same,"viability, T/C","second compound 0.3 µM, first compound 0.0316 µM",7.71%
same,"viability, T/C","second compound 0.3 µM, first compound 0.1 µM",9.03%
same,"viability, T/C","second compound 0.3 µM, first compound 0.316 µM",8.64%
same,"viability, T/C","second compound 0.3 µM, first compound 1 µM",9.67%
same,"viability, T/C","second compound 0.3 µM, first compound 3.16 µM",8.76%
same,"viability, T/C","second compound 0.3 µM, first compound 10 µM",7.22%
